Here are results for one compound from ChEMBL document CHEMBL4041469, “The replacement of the 2-methoxy substituent of N-((6,6-diphenyl-1,4-dioxan-2-yl)methyl)-2-(2-methoxyphenoxy)ethan-1-amine improves the selectivity for 5-HT1A receptor over α1-adrenoceptor and D2-like receptor subtypes” (Eur J Med Chem, 2017).

SMILES strings stand for the structures.

For one assay, the target named is D(2) dopamine receptor (Homo sapiens, UniProt P14416). Description: Displacement of [3H]N-methylspiperone from recombinant human D2 receptor expressed in HEK293 cell membranes after 1 hr by liquid scintillation counting method.
In assay [1] the target is T1, 5-hydroxytryptamine receptor 1A (Homo sapiens) (UniProt P08908).
T1 sequence (whole entry): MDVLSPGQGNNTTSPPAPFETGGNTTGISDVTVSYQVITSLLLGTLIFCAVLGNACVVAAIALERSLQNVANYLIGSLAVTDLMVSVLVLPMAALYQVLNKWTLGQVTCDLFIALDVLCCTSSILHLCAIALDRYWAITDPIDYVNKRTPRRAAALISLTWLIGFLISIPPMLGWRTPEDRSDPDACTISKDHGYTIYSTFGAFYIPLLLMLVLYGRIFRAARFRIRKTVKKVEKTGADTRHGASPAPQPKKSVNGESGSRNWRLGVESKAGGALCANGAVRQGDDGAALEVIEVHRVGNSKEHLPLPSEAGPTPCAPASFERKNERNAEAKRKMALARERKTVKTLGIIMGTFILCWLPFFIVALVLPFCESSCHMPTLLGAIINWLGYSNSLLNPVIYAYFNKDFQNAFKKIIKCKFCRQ
Description: Agonist activity at recombinant human 5HT1A receptor expressed in human HeLa cell membranes assessed as stimulation of [35S]GTPgammaS binding up to 10 uM preincubated for 20 mins followed by [35S]GTPgammaS addition measured after 30 mins by liquid scintillation counting method relative to 5-HT. The class given is functional. On the technique in general: Binding of GTPγS marks nucleotide exchange on a G protein.

Assay [2] can be described thus: Selectivity index, ratio of Ki for recombinant human alpha-1a adrenergic receptor expressed in CHO cell membranes to Ki for recombinant human 5HT1A receptor expressed in human HeLa cell membranes.
For assay [3], the target named is T2, Alpha-1B adrenergic receptor (Homo sapiens, UniProt P35368).
T2 sequence (P35368 whole entry): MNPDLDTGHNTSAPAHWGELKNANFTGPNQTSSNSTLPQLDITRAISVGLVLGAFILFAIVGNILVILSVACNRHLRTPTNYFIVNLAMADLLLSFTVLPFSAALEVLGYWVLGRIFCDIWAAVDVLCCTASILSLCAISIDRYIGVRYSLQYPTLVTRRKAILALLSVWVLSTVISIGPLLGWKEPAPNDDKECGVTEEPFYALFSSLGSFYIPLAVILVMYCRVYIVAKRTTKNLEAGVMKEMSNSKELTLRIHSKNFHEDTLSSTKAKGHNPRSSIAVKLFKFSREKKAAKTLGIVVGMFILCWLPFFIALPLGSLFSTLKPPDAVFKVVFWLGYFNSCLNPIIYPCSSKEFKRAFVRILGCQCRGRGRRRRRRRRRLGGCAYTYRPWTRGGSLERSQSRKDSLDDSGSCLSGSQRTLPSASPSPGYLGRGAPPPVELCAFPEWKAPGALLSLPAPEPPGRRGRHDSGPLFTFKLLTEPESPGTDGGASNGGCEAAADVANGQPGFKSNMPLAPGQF
Description: Displacement of [3H]prazosin from recombinant human alpha-1b adrenergic receptor expressed in CHO cell membranes after 30 mins by liquid scintillation counting method. On the technique in general: Displacement assays read how much labelled ligand stays bound in the presence of the test substance.

Assay [4] can be described thus: Selectivity index, ratio of Ki for recombinant human D2 receptor expressed in HEK293 cell membranes to Ki for recombinant human 5HT1A receptor expressed in human HeLa cell membranes.
The target of assay [5] is T3, 5-hydroxytryptamine receptor 1A (Homo sapiens, UniProt P08908).
T3 sequence (P08908 whole entry): T1 sequence (whole entry)
Description: Displacement of [3H]8-OH-DPAT from recombinant human 5HT1A receptor expressed in human HeLa cell membranes after 30 mins by liquid scintillation counting method.

The target of the next assay is D(3) dopamine receptor (Homo sapiens, UniProt P35462). Description: Displacement of [3H]N-methylspiperone from recombinant human D3 receptor expressed in HEK293 cell membranes after 1 hr by liquid scintillation counting method.
Assay [6] in a line: Selectivity index, ratio of Ki for recombinant human alpha-1b adrenergic receptor expressed in CHO cell membranes to Ki for recombinant human 5HT1A receptor expressed in human HeLa cell membranes.
The target in assay [7] is T4, Alpha-1D adrenergic receptor (Homo sapiens, UniProt P25100).
T4 sequence (P25100 whole entry): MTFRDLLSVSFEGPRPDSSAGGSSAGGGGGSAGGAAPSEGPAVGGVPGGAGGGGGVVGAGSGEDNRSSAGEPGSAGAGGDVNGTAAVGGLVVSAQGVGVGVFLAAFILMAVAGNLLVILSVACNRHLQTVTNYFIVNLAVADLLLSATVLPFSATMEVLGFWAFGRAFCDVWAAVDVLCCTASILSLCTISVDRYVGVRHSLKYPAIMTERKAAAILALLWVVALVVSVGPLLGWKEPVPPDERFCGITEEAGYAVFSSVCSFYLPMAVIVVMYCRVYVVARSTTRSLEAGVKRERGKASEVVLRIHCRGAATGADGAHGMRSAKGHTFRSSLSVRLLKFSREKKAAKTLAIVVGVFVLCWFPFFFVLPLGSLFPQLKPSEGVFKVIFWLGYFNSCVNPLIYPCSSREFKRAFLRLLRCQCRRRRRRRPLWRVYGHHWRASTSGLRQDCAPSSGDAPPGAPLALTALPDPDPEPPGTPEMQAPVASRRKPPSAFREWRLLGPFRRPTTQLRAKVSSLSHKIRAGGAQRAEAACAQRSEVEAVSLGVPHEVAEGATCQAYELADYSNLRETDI
The assay can be described thus: Displacement of [3H]prazosin from recombinant human alpha-1d adrenergic receptor expressed in CHO cell membranes after 30 mins by liquid scintillation counting method.

Assay [8] concerns Mus musculus. Description: Anxiolytic activity in ip dosed CD-1 mouse assessed as increase in time spent in light area administered 30 mins prior to test by light/dark exploration test. The class given is functional, organism-based.
The nature of assay [9]: Selectivity index, ratio of Ki for recombinant human D3 receptor expressed in HEK293 cell membranes to Ki for recombinant human 5HT1A receptor expressed in human HeLa cell membranes.
The test system of assay [10] is Mus musculus. Description: Anxiolytic activity in ip dosed CD-1 mouse assessed as increase in latency time to enter dark area administered 30 mins prior to test by light/dark exploration test. The class given is functional, organism-based.
The target in assay [11] is T5, Alpha-1A adrenergic receptor (Homo sapiens, UniProt P35348).
T5 sequence (P35348 whole entry): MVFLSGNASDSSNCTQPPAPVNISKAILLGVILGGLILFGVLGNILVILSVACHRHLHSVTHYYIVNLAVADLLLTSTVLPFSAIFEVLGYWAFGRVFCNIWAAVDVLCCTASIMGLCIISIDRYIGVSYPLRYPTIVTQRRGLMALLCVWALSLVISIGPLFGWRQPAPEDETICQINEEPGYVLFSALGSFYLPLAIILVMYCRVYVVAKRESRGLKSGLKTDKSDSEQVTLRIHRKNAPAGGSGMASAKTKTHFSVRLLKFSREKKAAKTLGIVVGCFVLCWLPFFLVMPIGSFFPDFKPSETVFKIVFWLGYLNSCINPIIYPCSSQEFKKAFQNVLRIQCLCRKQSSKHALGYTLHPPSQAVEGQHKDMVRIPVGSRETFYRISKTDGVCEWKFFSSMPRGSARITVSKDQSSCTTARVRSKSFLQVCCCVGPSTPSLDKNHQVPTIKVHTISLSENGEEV
The assay can be described thus: Displacement of [3H]prazosin from recombinant human alpha-1a adrenergic receptor expressed in CHO cell membranes after 30 mins by liquid scintillation counting method.

Chain of D(2) dopamine receptor (P14416 whole entry): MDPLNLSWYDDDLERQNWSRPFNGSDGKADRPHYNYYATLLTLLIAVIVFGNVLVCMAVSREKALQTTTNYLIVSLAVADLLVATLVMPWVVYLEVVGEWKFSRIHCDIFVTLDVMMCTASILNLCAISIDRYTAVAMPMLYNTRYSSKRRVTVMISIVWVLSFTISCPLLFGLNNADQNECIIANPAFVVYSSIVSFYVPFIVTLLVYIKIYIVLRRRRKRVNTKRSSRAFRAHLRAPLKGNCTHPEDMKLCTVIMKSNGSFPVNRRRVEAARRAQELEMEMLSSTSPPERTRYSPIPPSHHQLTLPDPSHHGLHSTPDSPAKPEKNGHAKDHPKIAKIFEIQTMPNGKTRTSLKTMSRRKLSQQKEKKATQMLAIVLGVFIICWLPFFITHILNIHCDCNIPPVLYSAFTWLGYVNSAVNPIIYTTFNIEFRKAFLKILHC
Chain of D(3) dopamine receptor (P35462 whole entry): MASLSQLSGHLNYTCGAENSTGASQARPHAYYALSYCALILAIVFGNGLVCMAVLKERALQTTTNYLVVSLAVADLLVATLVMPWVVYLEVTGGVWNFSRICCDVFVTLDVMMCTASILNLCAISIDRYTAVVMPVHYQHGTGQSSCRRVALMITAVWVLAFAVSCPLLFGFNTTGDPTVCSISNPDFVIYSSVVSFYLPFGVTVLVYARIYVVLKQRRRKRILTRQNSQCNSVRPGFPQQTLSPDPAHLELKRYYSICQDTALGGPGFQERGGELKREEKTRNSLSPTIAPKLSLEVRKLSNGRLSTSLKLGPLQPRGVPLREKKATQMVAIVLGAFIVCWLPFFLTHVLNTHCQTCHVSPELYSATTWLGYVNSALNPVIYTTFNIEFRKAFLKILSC

By Ki is commonly meant the equilibrium dissociation constant of an inhibitor or competing ligand from its target. The Emax is the greatest response seen or fitted, relative to the assay's reference. `COCOc1ccccc1OCCNCC1COCC(c2ccccc2)(c2ccccc2)O1` (racemic): the Ki on D(2) dopamine receptor was 105 nM; in assay [3], 288 nM; in [5] it was 0.631 nM; on D(3) dopamine receptor, 66.1 nM; in [7] it was 79.4 nM; in assay [11] it was 282 nM. For the same compound, the Emax in assay [1] turned out to be 62.8%. Besides, the “Ratio Ki” value in [2] was found to be 447; in [4], 166; in assay [6] it was 457; in assay [9], 105. The Activity result in the assay with Mus musculus [8] and in the assay on Mus musculus [10] was “Dose-dependent effect” in each case.
